In ChEMBL document CHEMBL1122370 (J Med Chem, 1983):
Values joined by “and” are separate entries in the source; they are usually repeats but may differ in a detail not shown here. Identical values can stand only once.

Legend:
L1210 [1] = assay: In vivo antitumor activity against L1210 leukemia in 5 mice measured as median survival range at 30 mg/kg; Value ranges from (10-14); type: functional, Mus musculus
L1210 [2] = assay: In vivo anti tumor activity against L1210 leukemia in 5 mice measured as Increased life span at 45 mg/kg; type: functional; conditions: Mus musculus
L1210 [3] = assay: In vivo anti tumor activity against L1210 leukemia in 9 mice measured as Increased life span at 60 mg/kg; type: functional; conditions: Mus musculus
L1210 [4] = assay: In vivo antitumor activity against L1210 leukemia in 9 mice measured as median survival range at 60 mg/kg; Value ranges from (18-21); type: functional, Mus musculus
Mus musculus [5] = assay: Average weight of the mouse after treating with 30 mg/kg dose for 1 day; type: functional
Mus musculus [6] = assay: Average weight of the mouse after treating with 60 mg/kg dose for 1 day; type: functional
Mus musculus [7] = assay: Average weight change in mouse after treating with 30 mg/kg dose for 7 days.; type: functional
Mus musculus [8] = assay: Average weight change in mouse after treating with 60 mg/kg dose for 7 days.; type: functional
L1210 [9] = assay: In vivo antitumor activity against L1210 leukemia in 5 mice measured as median survival range at 45 mg/kg; Value ranges from (11-13); type: functional, Mus musculus
L1210 [10] = assay: In vivo antitumor activity against L1210 leukemia in 5 mice measured as median survival range at 180 mg/kg; Value ranges from (14-23); type: functional, Mus musculus
L1210 [11] = assay: In vivo anti tumor activity against L1210 leukemia in 5 mice measured as Increased life span at 180 mg/kg; type: functional; conditions: Mus musculus
L1210 [12] = assay: In vivo anti tumor activity against L1210 leukemia in 5 mice measured as Increased life span at 90 mg/kg; type: functional; conditions: Mus musculus
L1210 [13] = assay: In vivo antitumor activity against L1210 leukemia in 5 mice measured as median survival range at 90 mg/kg; Value ranges from (13-19); type: functional, Mus musculus
Mus musculus [14] = assay: Average weight of the mouse after treating with 180 mg/kg dose for 1 day; type: functional
Mus musculus [15] = assay: Average weight of the mouse after treating with 90 mg/kg dose for 1 day; type: functional
Mus musculus [16] = assay: Average weight of the mouse after treating with 45 mg/kg dose for 1 day; type: functional
Mus musculus [17] = assay: Average weight change in mouse after treating with 180 mg/kg dose for 7 days.; type: functional
Mus musculus [18] = assay: Average weight change in mouse after treating with 90 mg/kg dose for 7 days.; type: functional
L1210 [19] = assay: In vivo antitumor activity against L1210 leukemia in 5 mice measured as median survival range at 400 mg/kg; Value ranges from (14-20).; type: functional, Mus musculus
L1210 [20] = assay: In vivo antitumor activity against L1210 leukemia in 15 mice measured as T/C values; T/C = 15/11; type: functional, Mus musculus
L1210 [21] = assay: In vivo antitumor activity against L1210 leukemia in 5 mice measured as Increased life span at 400 mg/kg.; type: functional, Mus musculus
Mus musculus [22] = assay: Average weight of the mouse after treating with 400 mg/kg dose for 1 day.; type: functional
Mus musculus [23] = assay: Average weight of the mouse after treating with 400 mg/kg dose for 7 day.; type: functional
L1210 [24] = assay: In vivo antitumor activity against L1210 leukemia in 5 mice measured as median survival range at 240 mg/kg; Value ranges from(13-18); type: functional, Mus musculus
L1210 [25] = assay: In vivo antitumor activity against L1210 leukemia in 5 mice measured as median survival range at 280 mg/kg; Value ranges from(14-20); type: functional, Mus musculus
L1210 [26] = assay: In vivo antitumor activity against L1210 leukemia in 10 mice measured as median survival range at 120 mg/kg; Value ranges from(9-15); type: functional, Mus musculus
L1210 [27] = assay: In vivo antitumor activity against L1210 leukemia in 10 mice measured as median survival range at 160 mg/kg; Value ranges from(10-16).; type: functional, Mus musculus
L1210 [28] = assay: In vivo antitumor activity against L1210 leukemia in 15 mice measured as T/C values(days); T/C = 15/9; type: functional, Mus musculus
L1210 [29] = assay: In vivo antitumor activity against L1210 leukemia in 17 mice measured as T/C values(days); T/C = 17/9; type: functional, Mus musculus
L1210 [30] = assay: In vivo antitumor activity against L1210 leukemia in 10 mice measured as Increased life span at 120 mg/kg.; type: functional; conditions: Mus musculus
L1210 [31] = assay: In vivo antitumor activity against L1210 leukemia in 10 mice measured as Increased life span at 160 mg/kg.; type: functional; conditions: Mus musculus
L1210 [32] = assay: In vivo antitumor activity against L1210 leukemia in 5 mice measured as Increased life span at 240 mg/kg.; type: functional; conditions: Mus musculus
L1210 [33] = assay: In vivo antitumor activity against L1210 leukemia in 5 mice measured as Increased life span at 280 mg/kg.; type: functional; conditions: Mus musculus
L1210 [34] = assay: In vivo antitumor activity against L1210 leukemia in 13 mice measured as T/C values(days); T/C = 13/9; type: functional, Mus musculus
Mus musculus [35] = assay: Average weight of the mouse after treating with 120 mg/kg dose for 1 day.; type: functional
Mus musculus [36] = assay: Average weight of the mouse after treating with 160 mg/kg dose for 1 day.; type: functional
Mus musculus [37] = assay: Average weight of the mouse after treating with 200 mg/kg dose for 1 day.; type: functional
Mus musculus [38] = assay: Average weight of the mouse after treating with 240 mg/kg dose for 1 day.; type: functional
Mus musculus [39] = assay: Average weight of the mouse after treating with 280 mg/kg dose for 1 day.; type: functional
Mus musculus [40] = assay: In vivo antitumor activity against L1210 leukemia in 5 mice measured as Increased life span at 200 mg/kg.; type: functional
Mus musculus [41] = assay: In vivo antitumor activity against L1210 leukemia in 16 mice measured as T/C values(days); T/C = 16/9; type: functional
Mus musculus [42] = assay: In vivo antitumor activity against L1210 leukemia in 5 mice measured as median survival range at 200 mg/kg; Value ranges from(13-18); type: functional
Mus musculus [43] = assay: Average weight of the mouse after treating with 120 mg/kg dose for 7 days.; type: functional
Mus musculus [44] = assay: Average weight of the mouse after treating with 160 mg/kg dose for 7 days.; type: functional
Mus musculus [45] = assay: Average weight of the mouse after treating with 240 mg/kg dose for 7 days.; type: functional
Mus musculus [46] = assay: Average weight of the mouse after treating with 280 mg/kg dose for 7 days.; type: functional
Mus musculus [47] = assay: Average weight of the mouse after treating with 200 mg/kg dose for 7 days.; type: functional

Question: With `CCCCCCCCCCCCOC(=O)CCC(NC(=O)c1ccc(N(C)Cc2cnc3nc(N)nc(N)c3n2)cc1)C(=O)OCCCCCCCCCCCC` (stereo not drawn) as the molecule, how does the Range (L1210 [1]) read?
Answer: The Range was 14.

Question: What about the ILS at 45 mg/kg (L1210 [2]) of the same molecule?
Answer: The ILS at 45 mg/kg was 33%.

Question: What about the ILS at 60 mg/kg (L1210 [3]) of the same molecule?
Answer: The ILS at 60 mg/kg was 100%.

Question: What about the Range (L1210 [4]) of the same molecule?
Answer: The Range was 21.

Question: And the Average weight (Mus musculus [5])?
Answer: Its Average weight is 23.2.

Question: What about the Average weight (Mus musculus [6]) of the same molecule?
Answer: Its Average weight is 24.2.

Question: What about the Weight change (Mus musculus [7]) of the same molecule?
Answer: Its Weight change is 3.

Question: What about the Weight change (Mus musculus [8]) of the same molecule?
Answer: The Weight change was 0.

Question: What does the source list for `CCCCCCCCOC(=O)CCC(NC(=O)c1cc(Cl)c(N(C)Cc2cnc3nc(N)nc(N)c3n2)c(Cl)c1)C(=O)OCCCCCCCC` (stereo not drawn)?
Answer: Range (L1210 [9]): 13; Range (L1210 [10]): 23; ILS at 180 mg/kg (L1210 [11]): 122%; ILS at 45 mg/kg (L1210 [2]): 44%; ILS at 90 mg/kg (L1210 [12]): 66%; Range (L1210 [13]): 19; Average weight (Mus musculus [14]): 28.2; Average weight (Mus musculus [15]): 28.2; Average weight (Mus musculus [16]): 26.2; Weight change (Mus musculus [17]): 5.8; Weight change (Mus musculus [18]): 1.4 and 3.6

Question: With `CN(Cc1cnc2nc(N)nc(N)c2n1)c1ccc(C(=O)NC(CCC(=O)OC(C)(C)C)C(=O)OC(C)(C)C)cc1` (stereo not drawn) as the molecule, how does the Range (L1210 [19]) read?
Answer: The Range was 20.

Question: And the T/C (L1210 [20])?
Answer: The T/C was 11.

Question: What about the ILS (L1210 [21]) of the same molecule?
Answer: Its ILS is 36.

Question: And the Average weight (Mus musculus [22])?
Answer: The Average weight was 27.6.

Question: What about the Weight change (Mus musculus [23]) of the same molecule?
Answer: The Weight change was 2.6.

Question: `CN(Cc1cnc2nc(N)nc(N)c2n1)c1c(Cl)cc(C(=O)NC(CCC(=O)O)C(=O)O)cc1Cl` (stereo not drawn) was tested. Which Range (L1210 [24]) did it give?
Answer: The Range was 18.

Question: What about the Range (L1210 [25]) of the same molecule?
Answer: Its Range is 20.

Question: And the Range (L1210 [26])?
Answer: The Range was 15.

Question: And the Range (L1210 [27])?
Answer: The Range was 16.

Question: What about the T/C (L1210 [28]) of the same molecule?
Answer: Its T/C is 9.

Question: What about the T/C (L1210 [29]) of the same molecule?
Answer: Its T/C is 9.

Question: What about the ILS at 120 mg/kg (L1210 [30]) of the same molecule?
Answer: The ILS at 120 mg/kg was 22%.

Question: And the ILS at 160 mg/kg (L1210 [31])?
Answer: The ILS at 160 mg/kg was 44%.

Question: And the ILS at 240 mg/kg (L1210 [32])?
Answer: The ILS at 240 mg/kg was 67%.

Question: And the ILS at 280 mg/kg (L1210 [33])?
Answer: Its ILS at 280 mg/kg is 89%.

Question: What about the T/C (L1210 [34]) of the same molecule?
Answer: Its T/C is 9.

Question: What about the Average weight (Mus musculus [35]) of the same molecule?
Answer: Its Average weight is 22.4.

Question: And the Average weight (Mus musculus [36])?
Answer: Its Average weight is 22.5.

Question: What about the Average weight (Mus musculus [37]) of the same molecule?
Answer: Its Average weight is 24.2.

Question: What about the Average weight (Mus musculus [38]) of the same molecule?
Answer: The Average weight was 22.4.

Question: What about the Average weight (Mus musculus [39]) of the same molecule?
Answer: The Average weight was 21.4.

Question: And the ILS at 200 mg/kg (Mus musculus [40])?
Answer: Its ILS at 200 mg/kg is 78%.

Question: What about the T/C (Mus musculus [41]) of the same molecule?
Answer: Its T/C is 9.

Question: And the Range (Mus musculus [42])?
Answer: Its Range is 18.

Question: And the Weight change (Mus musculus [43])?
Answer: Its Weight change is 2.4.

Question: What about the Weight change (Mus musculus [44]) of the same molecule?
Answer: The Weight change was 2.9.

Question: And the Weight change (Mus musculus [45])?
Answer: The Weight change was 2.1.

Question: And the Weight change (Mus musculus [46])?
Answer: Its Weight change is 1.4.

Question: And the Weight change (Mus musculus [47])?
Answer: The Weight change was 1.8.
